Source: patent EP1792618A1, “R-mirtazapine for the treatment of pain” (Freynhagen, Rainer, priority 2005, dated 2007)

Tests used:
acute thermal pain = assay: Plantar test (radiant heat, Hargreaves): paw withdrawal latency after intrathecal injection; type: in vivo, Male Wistar rats; settings: for Paw withdrawal latencies: 240 minutes after injection, mean ± sem, vehicle 11.2 ± 0.24 s, cut-off 20 sec; for overall effect on acute thermal pain over the dose range tested: 0.001 to 1 mg/kg intrathecal; for time after injection of the maximum of pro- or antinociception: intrathecal injection
Method: The pro- or antinociceptive properties of (+/-)-mirtazapine and its enantiomers R(-)-mirtazapine and S(+)mirtazapine, respectively, were analyzed in acute thermal pain (Hargreaves et al., Pain, 32 (1988) 77-88). Male Wistar rats weighing 350-400 g (housed three per cage, access to foot and water ad libitum, room maintained at 22°C ± 0,5°C and on a 12:12 light- dark cycle) were anesthetized with intraperitoneal (i.p.) injection of pentobarbital (60 mg/kg i.p.). The rats were implanted with polyethylene catheters (inner diameter 0.28 mm, outer diameter 0.61 mm), which were advanced from the cisterna magna to the rostral edge of the lumbar enlargement as described before (Muth-Selbach et al., Anesthesiology, 101 (2004) 753-8; Ahmadi et al., Science, 300, (2003) 2094-2097; Zeilhofer et al., J Neurosci 20 (2000) 4922-9). Rats with impaired motor function after catheter implantation were excluded from the study. Paw withdrawal latencies were tested 6-10 days after surgery at all times in the same air conditioned room. The lateral plantar surface of both hind paws was exposed to a defined radiant heat stimulus through a transparent perspex surface (Plantar Test, Hugo Basile Inc., Italy, Comerio) and paw withdrawal latencies were recorded (Hargreaves et al., op.cit.). The animal is unrestrained and unhandled during experiments. When the rat feels pain and withdraws its paw, the sudden drop of reflected radiation switches off the I.R. source and stops the reaction time counter so that the withdrawal latency to the nearest 0.1 s is determined. Paw withdrawal latencies of both hind paws were determined from 4 independent measurements for each time point. A cut-off time of 20 sec was set to avoid tissue damage.
Behavior as described above was tested before and 120, 240 min and 24 hours after application of either substance. In order to find the maximum effect over time, groups of 4 animals were tested before and 30, 60, 120, 180, 240 min and 24 hours after application of 0.1 mg/kg (+/-)-mirtazapine.
(+/-)-Mirtazapine, R(-)-mirtazapine, S(+)mirtazapine or vehicle (0.9% NaCl) were applied to the cerebrospinal fluid via intrathecal catheters in a total volume of 10 µl. Rats were randomly assigned to the different treatment groups consisting of 6 to 9 rats each. All behavioral observations were performed in a standardized blinded fashion.
After the behavioral tests, rats were sacrificed by a lethal dose of pentobarbital i.p.. Proper position of the catheter tip was verified after laminectomy and methylene blue injection through the catheter. All behavioral tests were performed with permission of the German authorities concerned with the law on experiments involving animals and were in accordance with the guidelines of the International Association for the Study of Pain.
(+/-)-Mirtazapine (1, 2, 3, 4, 10, 14b-Hexahydro-2-methyl-pyrazino-[2, 1-a] pyrido [2, 3-c] [2] benzazepin, free base), R(-)-mirtazapine and S(+)-mirtazapine maleate salt were generously donated by N.V. Organon, Oss (The Netherlands) and were of the highest quality available. All chemicals were dissolved in 0.9 % NaCl and stored in aliquots at - 70°C. Fresh dilutions were made with 0.9 % NaCl on every experimental day.
Group data are presented as mean + standard error of the mean(sem). Withdrawal latencies in the different treatment groups were analyzed by analysis of variance (repeated measurements) followed by LSD post hoc tests (SAS Software System). P ≤ 0.05 was assumed significant. In detail, for each dose (i.e. 1, 0.1, 0.01 and 0.001 mg/kg) twelve comparisons were made at five time points.

thermal pain = settings: 3-30 mg/kg intraperitoneally, rats; cited from earlier work
neuropathic pain = settings: chronic constriction injury model, rats; cited from earlier work
[1] = test system: acute nociceptive responses; settings: rats; cited from earlier work
[2] = test system: hypothermic response to a 5-HT1-agonist; settings: normal rats, chronic administration; compared with one of the enantiomers alone; cited from earlier work
[3] = test system: α2-adrenergic autoreceptors; settings: compared with R(-)-mirtazapine; cited from earlier work
[4] = 0.001 mg/kg intrathecal (lowest dose)
[5] = 0.01 mg/kg intrathecal, time points 120, 240 minutes, 24 hours as stated per substance
[6] = 0.1 mg/kg intrathecal, time points 120, 240 minutes, 24 hours as stated per substance
[7] = 1 mg/kg intrathecal, time points 120, 240 minutes, 24 hours as stated per substance

Row | Structure (SMILES) | pro- or antinociceptive effect (acute thermal pain; [4]) | Paw withdrawal latencies (acute thermal pain; 0.001 mg/kg intrathecal) | Paw withdrawal latencies (acute thermal pain; 0.01 mg/kg intrathecal) | pro- or antinociceptive effect (acute thermal pain; [5]) | Paw withdrawal latencies (acute thermal pain; 0.1 mg/kg intrathecal) | pro- or antinociceptive effect (acute thermal pain; [6]) | Paw withdrawal latencies (acute thermal pain; 1 mg/kg intrathecal) | pro- or antinociceptive effect (acute thermal pain; [7]) | overall effect on acute thermal pain over the dose range tested (acute thermal pain) | time after injection of the maximum of pro- or antinociception (acute thermal pain) | antinociceptive activity in thermal pain (hot plate) (thermal pain) | mechanical allodynia (neuropathic pain) | mechanical hyperalgesia (neuropathic pain) | thermal hyperalgesia (neuropathic pain) | acute nociceptive responses in the tail flick test [1] | hypothermic response to a 5-HT1-agonist [2] | potency as blocker of α2-adrenergic autoreceptors [3]
1 | CN1CCN2c3ncccc3Cc3ccccc3C2C1 (racemic) [(+/-)-mirtazapine, 1,2,3,4, 10, 14b-Hexahydro-2-methyl-pyrazino-[2,1-a] pyrido [2,3-c] [2] benzazepin] | neither pro- nor antinociceptive | 11.5 ± 0.9 s | 14.5 ± 1.0 s | antinociceptive | 14.4 ± 0.3 s | antinociceptive | 6.9 ± 0.4 s | profound pronociceptive effect | dose-dependently exerted pro- and- antinociceptive activity | 240 min | exhibited antinociceptive activity | not | significantly attenuated | significantly attenuated | did not affect | potentiated | 
2 | CN1CCN2c3ncccc3Cc3ccccc3[C@@H]2C1 [R(-)-mirtazapine] | neither pro- nor antinociceptive | 11.3 ± 0.9 s | 15.6 ± 0.6 s | antinociceptive | 13.8 ± 0.4 s | antinociceptive | 13.5 ± 0.5 s | antinociceptive | only elicited antinociceptive effects | 240 min |  |  |  |  |  |  | 
3 | CN1CCN2c3ncccc3Cc3ccccc3[C@H]2C1 [S(+)-mirtazapine] | neither pro- nor antinociceptive | 8.7 ± 0.8 s | 8.4 ± 1.1 s | pronociceptive | 8.1 ± 1.0 s | pronociceptive | 7.4 ± 0.4 s | pronociceptive | exclusively pronociceptive | 240 min |  |  |  |  |  |  | more potent blocker
